Data from patent US6376541B1, “Upregulation of endogenous prostaglandins to lower intraocular pressure” (Alcon Manufacturing, Ltd., priority 1998, dated 2002).
Where two headings read alike, the source gives them in different places.

Tests used:
[1] = test system: fibroblasts; conditions: cited from earlier work
[2] = test system: human trabecular meshwork cells; experiment: Induction of PGE2 synthesis in cultured human trabecular meshwork cells (14C-arachidonic acid, TLC); format: cell-based; conditions: 10 ng/ml each; for % of total CPM in PGE2 fraction (mean ± std dev): 17 hours then 14C-arachidonic acid for 4 hours
Protocol: Primary human trabecular meshwork cells were grown in culture according to the method of Weinreb, et al. from a donor. Cells (passage 5) were seeded into 12-well plates and grown until they just reached confluency, with culture medium replacement every 3-4 days. Triplicate wells of cells were then exposed to interleukin-1 beta (10 ng/ml final), TGF-beta 1 (10 ng/ml final) or both in 1 ml of Ham's F-10 Nutrient Mixture (Gibco-BRL), containing 2 mM L-glutamine and 0.4 mg/ml bovine serum albumin (Sigma Chemical Co.). Control cells received medium devoid of IL-1β and TGF-β1. Cells were then incubated in a 37° C., 5% CO2, humidified incubator for 17 hours. ^14C-arachidonic acid (300,000 dpm) was added to each well, and the cells were returned to the incubator for an additional 4 hours. A modified Bligh & Dyer lipid extraction [Can. J. Biochem. Physiol. 37,911 (1959)] was then performed on the cells and supernatants. An aliquot of the extracted samples and fatty acid standards were spotted on a moderate hardness silica gel thin-layer chromatography plate (Alltech K5, 20×20 cm, 250 μm thick). The plate was developed in prostaglandin TLC solvent (11:5:2:10 ethyl acetate: 2,2,4-trimethylpentane: acetic acid: distilled water), air-dried, and standard bands were visualized with vaporization of iodine crystals. Each lane on the plate was divided into segments based upon the position of the standards, and each segment was scraped off of the plate with a razor blade into a glass scintillation vial. Opti-fluor scintillation cocktail (Packard) was added to each vial, and the samples were counted on a beta scintillation counter. The amount of each fraction was calculated as a percentage of total counts per minute (CPM) from that sample.

[3] = test system: cultured trabecular-meshwork cells; conditions: cited from earlier work
[4] = test system: human corneal fibroblasts; experiment: Induction of prostaglandin synthesis in cultured human corneal fibroblasts (enzyme immunoassay of conditioned medium); format: cell-based; conditions: 10 ng/ml
Protocol: Primary human corneal fibroblasts were grown in culture from freshly denuded corneal stromal tissue from a donor. Cells (passage 4) were seeded into 12-well plates and grown to 80% confluency. Selected cells were then exposed to Interleukin-1 alpha (10 ng/ml final) in Ham's F-10 Nutrient mixture (HyClone Corporation) containing 10% fetal bovine serum by medium replacement in the wells. Control cells received medium devoid of this inflammatory cytokine. Cells were then incubated in a 37° C., 5% CO2, humidified incubator for 24 hours. Conditioned medium was then removed, centrifuged to remove any cellular debris (3 minutes at 2600 rpm and 4° C.), and analyzed for PGE2 and PGF2α, levels in the medium using specific enzyme immunoassay kits (Cayman Scientific). Cells in each well were counted, and prostaglandin levels normalized to the cell count for the respective wells.

[5] = 24 hours, conditioned medium, normalized to cell count

PDGF
stimulation of PGE2 synthesis [1]: 10-15 fold
stimulation of PGE2 synthesis ([1]; in the presence of exogenous arachidonic acid): 28 fold

IL-1β: interleukin-1 beta, prostaglandin upregulating agent (Genzyme)
increase in PGE2 synthesis over non-treated control [2]: 440%
% of total CPM in PGE2 fraction (mean ± std dev) [2]: 9.34 ± 0.70%

CNc1ccc2oc(C[C@H]3O[C@@]4(CC[C@H]3C)O[C@H]([C@H](C)C(=O)c3ccc[nH]3)[C@H](C)C[C@H]4C)nc2c1C(=O)O [lonophore A23187]
effect on PGE2 synthesis [3]: stimulate PGE2 synthesis

CCCCC/C=C\C\C=C/C=C/C=C/[C@@H](SC[C@H](NC(=O)CC[C@H](N)C(=O)O)C(=O)NCC(=O)O)[C@@H](O)CCCC(=O)O [leukotriene C4]
effect on PGE2 synthesis [3]: stimulate PGE2 synthesis

NCCc1c[nH]cn1 [histamine]
effect on PGE2 synthesis [3]: stimulate PGE2 synthesis

CCCCC/C=C\C/C=C\C/C=C\C/C=C\CCCC(=O)O [arachidonic acid]
effect on PGE2 synthesis [3]: stimulate PGE2 synthesis

INTERLEUKIN-1α: inflammatory cytokine Interleukin-1 alpha
PGE2 produced per 100,000 cells in 24 hours (mean ± std dev) [4, 5]: 48,736 ± 3597 PICOGRAMS
PGF2α produced per 100,000 cells in 24 hours (mean ± std dev) [4, 5]: 1704 ± 367 PICOGRAMS
elevation of the level of PGE2 ([4]; versus unstimulated cells): > 47 fold
elevation of the level of PGF2α ([4]; versus unstimulated cells): > 3 fold

TGF-β1: Transforming Growth Factor beta 1, prostaglandin upregulating agent
increase in PGE2 synthesis over non-treated control [2]: 74%
% of total CPM in PGE2 fraction (mean ± std dev) [2]: 3.01 ± 0.38%
